Some test systems named below: SF-268; EKVX; K562; MDA-MB-435; TK-10; MDA-N; 786-0; SK-MEL-28; NCI-H522; KM12; OVCAR-8; SK-OV-3; SK-MEL-2; NCI/ADR-RES; HOP-92; A549; COLO 205; SF-295; MDA-MB-231; SF-539.
Holding throughout (assay): DTP human tumour cell line panel, 48 h

These results are taken from ChEMBL document CHEMBL1201862, “PubChem BioAssay data set” (2004).

SMILES strings stand for the structures.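 Exposure lasted 48 hours, with cells grown in 96-well plates and compounds tested at five concentrations. Here, GI50 denotes the concentration required for 50% inhibition of growth.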 Activity calls are given as the source filed them. Rule as the data show it: active = GI50 up to about 1.1 µM and inactive = higher.

On to `CCCCCCCCCC(=O)OCC1(CO)C/C(=C/CC(C(C)C)C(C)C)C(=O)O1` (configuration not stated), for which the GI50 was > 100 µM (inactive) in the experiment on SF-268; 70.1 µM (inactive) in the experiment with EKVX; 18.3 µM (inactive) in the experiment on K562; 31.6 µM (inactive) in the experiment with MDA-MB-435; 77.6 µM (inactive) in the experiment on TK-10; 87.1 µM (inactive) with MDA-N. The GI50 was 35.7 µM (inactive) in the experiment on 786-0; 71.3 µM (inactive) in the experiment on SK-MEL-28; 19.4 µM (inactive) in the experiment on NCI-H522; 10.2 µM (inactive) with KM12; 47.1 µM (inactive) in the experiment on OVCAR-8; > 100 µM (inactive) in the experiment on SK-OV-3. Further, the GI50 in the experiment on SK-MEL-2 is > 100 µM (inactive); with NCI/ADR-RES it was > 100 µM (inactive); with HOP-92, > 100 µM (inactive); in the experiment on A549 it was 26.6 µM (inactive); in the experiment on COLO 205 it was 9.18 µM (inactive); in the experiment with SF-295, 42.4 µM (inactive). In addition, in the experiment on MDA-MB-231, the GI50 is 51.3 µM (inactive).

Turning to `COc1ccc(NC(C)=O)cc1N1C(=O)/C(=C\c2cccc(Oc3ccccc3)c2)SC1c1ccccc1` (configuration not stated), the GI50 was 33.3 µM (inactive) in the experiment on EKVX; 19.8 µM (inactive) in the experiment with K562; 23.3 µM (inactive) in the experiment with MDA-MB-435; 49.3 µM (inactive) with TK-10; 26.2 µM (inactive) in the experiment on MDA-N; 24.3 µM (inactive) in the experiment on 786-0. Also, the GI50 in the experiment on SK-MEL-28 is 28.3 µM (inactive); in the experiment with NCI-H522 it was 28.4 µM (inactive); in the experiment on KM12, 37.6 µM (inactive); in the experiment with OVCAR-8 it was 22.5 µM (inactive); with SK-OV-3 it was 49 µM (inactive); with SK-MEL-2 it was 30.5 µM (inactive). The GI50 is 19.2 µM (inactive) with NCI/ADR-RES; 20.9 µM (inactive) in the experiment on HOP-92; 40.4 µM (inactive) in the experiment on A549; 19.4 µM (inactive) in the experiment with COLO 205; 28.4 µM (inactive) in the experiment on SF-295; 37.8 µM (inactive) in the experiment on MDA-MB-231.

In the case of `O=C(Nc1cc2c(=O)oc3ccccc3c2oc1=O)c1cccnc1`, the GI50 in the experiment on EKVX, in the experiment on K562, in the experiment with MDA-MB-435, with SF-539, with TK-10 and in the experiment with MDA-N was > 100 µM (inactive) in each case. Further, the GI50 in the experiment with 786-0 was > 100 µM (inactive); in the experiment on SK-MEL-28, > 100 µM (inactive); in the experiment on NCI-H522, > 100 µM (inactive); in the experiment with KM12, > 100 µM (inactive); in the experiment on OVCAR-8, 45 µM (inactive); in the experiment on SK-OV-3 it was > 100 µM (inactive). Also, the GI50 with SK-MEL-2 was 83.2 µM (inactive); in the experiment with NCI/ADR-RES, > 100 µM (inactive); in the experiment with HOP-92, > 100 µM (inactive); with A549, > 100 µM (inactive); in the experiment on COLO 205 it was > 100 µM (inactive); in the experiment with SF-295, > 100 µM (inactive). Besides, the GI50 in the experiment with MDA-MB-231 is > 100 µM (inactive).

As to `Cc1ccc(/N=N/c2c(C)nn(C(=O)CC(=O)Nc3ccccc3)c2C)cc1C`, the GI50 in the experiment on SF-268 is > 100 µM (inactive); in the experiment with EKVX it was 26.2 µM (inactive); in the experiment with MDA-MB-435 it was > 100 µM (inactive); with SF-539 it was > 100 µM (inactive); with TK-10 it was > 100 µM (inactive); in the experiment with MDA-N, > 100 µM (inactive). Besides, the GI50 with 786-0, with SK-MEL-28, in the experiment with NCI-H522, in the experiment with KM12, in the experiment on OVCAR-8 and in the experiment with SK-OV-3 was > 100 µM (inactive) each time. The GI50 with SK-MEL-2, in the experiment on NCI/ADR-RES, in the experiment on HOP-92, in the experiment with A549, in the experiment with COLO 205 and in the experiment with SF-295 was > 100 µM (inactive) throughout. Moreover, in the experiment with MDA-MB-231, the GI50 is > 100 µM (inactive).

Turning to `Brc1ccc(/N=N/c2ccc3ccccc3n2)cc1`, the GI50 in the experiment with SF-268 was 22.3 µM (inactive); with EKVX it was 17.6 µM (inactive); with MDA-MB-435, 64.3 µM (inactive); in the experiment on SF-539, 22.2 µM (inactive); in the experiment with TK-10, 28 µM (inactive); in the experiment with MDA-N, 31.8 µM (inactive). Moreover, the GI50 was 14.2 µM (inactive) with 786-0; 0.0372 µM (active) in the experiment with NCI-H522; 62.2 µM (inactive) in the experiment on KM12; 30.3 µM (inactive) in the experiment on OVCAR-8; 22.9 µM (inactive) in the experiment with SK-OV-3; > 100 µM (inactive) with SK-MEL-2. Also, the GI50 with NCI/ADR-RES was 33.3 µM (inactive); in the experiment on HOP-92, 33.2 µM (inactive); in the experiment on A549 it was 46.9 µM (inactive); in the experiment with COLO 205 it was > 100 µM (inactive); in the experiment on SF-295 it was 24.8 µM (inactive); in the experiment with MDA-MB-231 it was > 10 µM (inactive).

Take `OCC1OC(n2cnc3c(Cl)nc(Nc4ccccc4)nc32)CC1O` (configuration not stated): the GI50 with SF-268 was 65.6 µM (inactive); in the experiment with EKVX, 2.94 µM (inactive); in the experiment with K562, 32.7 µM (inactive); in the experiment with MDA-MB-435, 60.1 µM (inactive); in the experiment with SF-539, > 100 µM (inactive); with TK-10 it was > 100 µM (inactive). The GI50 with MDA-N was 75.5 µM (inactive); in the experiment on 786-0, > 100 µM (inactive); with NCI-H522 it was 5.2 µM (inactive); with KM12, > 100 µM (inactive); in the experiment on OVCAR-8 it was > 100 µM (inactive); in the experiment on SK-OV-3 it was > 100 µM (inactive). In addition, the GI50 with SK-MEL-2 is 45.7 µM (inactive); in the experiment with NCI/ADR-RES, > 100 µM (inactive); in the experiment with HOP-92 it was 2.74 µM (inactive); with A549, 17.7 µM (inactive); with COLO 205 it was > 100 µM (inactive); with SF-295 it was > 100 µM (inactive). The GI50 with MDA-MB-231 was 31.2 µM (inactive).

In the case of `Cc1cc(S(=O)(=O)N2CCNNC2=O)c(S)cc1Cl`, the GI50 in the experiment with SF-268 was > 100 µM (inactive); with EKVX it was > 100 µM (inactive); in the experiment with K562, 37.2 µM (inactive); with MDA-MB-435, > 100 µM (inactive); with SF-539 it was 37 µM (inactive); in the experiment with TK-10, > 100 µM (inactive). In addition, the GI50 in the experiment with MDA-N was > 100 µM (inactive); with 786-0 it was 19.9 µM (inactive); in the experiment with SK-MEL-28, 20 µM (inactive); in the experiment on NCI-H522, 22.5 µM (inactive); in the experiment with KM12 it was > 100 µM (inactive); in the experiment with OVCAR-8, > 100 µM (inactive). Moreover, the GI50 with SK-MEL-2 was > 100 µM (inactive); with NCI/ADR-RES it was > 100 µM (inactive); in the experiment with HOP-92 it was 48.4 µM (inactive); in the experiment on A549, 56.4 µM (inactive); in the experiment with COLO 205, > 100 µM (inactive); in the experiment on SF-295 it was > 100 µM (inactive). In addition, the GI50 in the experiment on MDA-MB-231 is 23.8 µM (inactive).

For the molecule `Cc1nc(N)c(N2CCN(C(=O)O)CC2)c(O)n1`, the GI50 with SF-268, in the experiment with EKVX, with K562, with MDA-MB-435, in the experiment with SF-539 and with TK-10 was > 100 µM (inactive) in each case. The GI50 with MDA-N, with 786-0, in the experiment with SK-MEL-28, in the experiment on NCI-H522, in the experiment on KM12 and in the experiment with OVCAR-8 was > 100 µM (inactive) each time. The GI50 in the experiment with SK-MEL-2, in the experiment with NCI/ADR-RES, in the experiment on HOP-92, with A549, with COLO 205 and in the experiment on SF-295 was > 100 µM (inactive) in each case. Moreover, the GI50 in the experiment with MDA-MB-231 is > 100 µM (inactive).

Consider `CC(NC(=O)c1ccc(NP(=O)(OCc2ccc([N+](=O)[O-])o2)N(C)CCCCCl)cc1)c1ccc(OCC2CCCCC2)c(C(N)=O)c1` (configuration not stated), for which the GI50 is 13.3 µM (inactive) with SF-268; 17.3 µM (inactive) with K562; 12 µM (inactive) in the experiment on MDA-MB-435; 16.5 µM (inactive) with SF-539; 23.4 µM (inactive) with TK-10; 17.7 µM (inactive) in the experiment on MDA-N. Also, the GI50 was 17.5 µM (inactive) in the experiment on 786-0; 17 µM (inactive) in the experiment on SK-MEL-28; 15.5 µM (inactive) in the experiment on NCI-H522; 13.8 µM (inactive) in the experiment with KM12; 31.6 µM (inactive) in the experiment on OVCAR-8; 21.6 µM (inactive) in the experiment on SK-OV-3. The GI50 in the experiment on SK-MEL-2 was 16.1 µM (inactive); in the experiment with NCI/ADR-RES, 61.8 µM (inactive); in the experiment with HOP-92, 2.95 µM (inactive); in the experiment with A549, 10.6 µM (inactive); in the experiment with COLO 205, 10.9 µM (inactive); in the experiment with SF-295 it was 15.5 µM (inactive). Further, in the experiment on MDA-MB-231, the GI50 was 14.9 µM (inactive).

Turning to `O=c1c(Cc2ccccc2)c(-c2ccccc2)[nH]n1C1=NCCN1`, the GI50 was 28.4 µM (inactive) in the experiment with SF-268; 39.1 µM (inactive) in the experiment on EKVX; 53.5 µM (inactive) with K562; 24.8 µM (inactive) in the experiment on MDA-MB-435; 58.1 µM (inactive) in the experiment on SF-539; 37.6 µM (inactive) in the experiment on TK-10. The GI50 in the experiment with MDA-N is 38.5 µM (inactive); with 786-0 it was 37.3 µM (inactive); in the experiment with NCI-H522, 40.5 µM (inactive); in the experiment with KM12 it was 61 µM (inactive); in the experiment with OVCAR-8, 40 µM (inactive); with SK-OV-3, > 100 µM (inactive). Besides, the GI50 in the experiment on SK-MEL-2 was 28.4 µM (inactive); with NCI/ADR-RES it was 27.7 µM (inactive); in the experiment on HOP-92, 44.7 µM (inactive); in the experiment on A549, 40.5 µM (inactive); in the experiment with COLO 205, 35.2 µM (inactive); in the experiment on SF-295 it was 43.6 µM (inactive). Besides, in the experiment on MDA-MB-231, the GI50 is > 100 µM (inactive).

As to `c1ccc(C/C(=N\Nc2nc3ccccc3o2)c2ccccn2)cc1`, the GI50 in the experiment on SF-268 was 0.0805 µM (active); in the experiment on EKVX it was < 0.01 µM (active); in the experiment on K562, 0.027 µM (active); in the experiment on MDA-MB-435 it was 0.638 µM (active); with SF-539, 0.114 µM (active); in the experiment on TK-10 it was 0.0668 µM (active). Further, the GI50 was 0.355 µM (active) in the experiment on MDA-N; < 0.0193 µM (active) in the experiment on 786-0; 0.191 µM (active) in the experiment with NCI-H522; 0.264 µM (active) in the experiment on KM12; 0.0321 µM (active) in the experiment with OVCAR-8; 0.0237 µM (active) in the experiment with SK-OV-3. In addition, the GI50 in the experiment with SK-MEL-2 is 0.929 µM (active); in the experiment on NCI/ADR-RES it was 0.0246 µM (active); in the experiment on HOP-92, 0.0281 µM (active); in the experiment on A549, 0.437 µM (active); with COLO 205 it was < 0.01 µM (active); in the experiment on SF-295, 0.234 µM (active). The GI50 in the experiment on MDA-MB-231 is 0.126 µM (active).

In general, GI50 refers to the concentration giving 50% growth inhibition.
